Measured values taken from patent US20190216831A1 (priority 2015, published 2019).

Key:
EIAVWYO [1] = experiment: EIAV replication kinetics in equine dermal cells, RT qPCR of culture supernatants; assay type: cell-based, Equine infectious anemia virus; conditions: for EIAV viral replication decreased to (from 10^8) / EIAV viral replication reduced to (from 10^8): 10 μM; for EIAV viral replication decreased to (from 10^8): day 15 post infection; for EIAV viral replication reduced to (from 10^8): day 15 and 20 post infection
Protocol: Equine dermal cells (3×10^4 cells per well of a 96-well plate) were seeded and incubated in complete media (as described above for NEV infections) under 5% CO2 at 37° C., for 24 h to 72 hours prior to infection. The antiviral effect adefovir dipivoxil, as well as other are antiviral drugs approved by FDA or EMA such as Zidovudine (nucleoside reverse transcription inhibitor), Nevirapine (non-nucleoside reverse transcription inhibitor), Indinavir sulphate (a HIV-1 protease inhibitor), Darunavir Ethanolate (a HIV-1 protease inhibitor), Daclastavir (HCV NS5A inhibitor), Cyclosporin A (immunosuppressive agent) and the drug that is being evaluated in pre-clinical/clinical assays as antivirals, such as Tenofovir (a nucleoside reverse transcription inhibitor), was evaluated (FIGS. 4A and 4B).
The drugs mentioned above were also tested as antivirals for EIAV. For that cells were pre-treated with drugs at two different concentrations 1 or 10 μM for 1 hour in triplicates. Cells were then infected with EIAVWYO (3 MOI for 2 hours). After infection fresh media and drugs were replaced and cells incubated for 5, 10, 15 and 20 days. The EIAVWYO replication was evaluated by quantifying EIAV viral genome in culture supernatants by means of RT qPCR. FIGS. 4A and 4B show the effect of the different drugs in EIAV replication kinetics. […] Virus was only recovered at low levels from treated cells in one of three replicate at day 5 (10 viral particles/mL) and another of three replicates at day 15 (100 viral particles/mL). The differences observed between the treated and not treated infected cells were statistically significant for p<0.001.

NEV [2] = experiment: Antiviral drug screen: PrestoBlue cell viability of NEV-infected Equine Dermal cells; assay type: cell-based, New Equine Virus; conditions: ED cells, 9 days
From the text: (§1) Complete media was composed of DMEM medium (Gibco, Life Technologies) with 10% Inactivated Fetal bovine serum (Gibco, Life Technologies), 1% Glutamax (Gibco, Life Technologies) and 1% Penicillin-Streptamicin (Gibco, Life Technologies).
The antiviral effect of adefovir dipivoxil, as well as other are antiviral drugs approved by FDA or EMA such as Zidovudine (nucleoside reverse transcription inhibitor), Nevirapine (non-nucleoside reverse transcription inhibitor), Indinavir sulphate (a HIV-1 protease inhibitor), Darunavir Ethanolate (a HIV-1 protease inhibitor), Daclastavir (HCV NS5A inhibitor), Cyclosporin A (immunosuppressive agent) and the drug that is being evaluated in pre-clinical/clinical assays as antivirals, such as Tenofovir (a nucleoside reverse transcription inhibitor), was evaluated (FIGS. 4A and 4B). Cells were pre-treated with drugs at 1 or 10 μM in quintuplicates for one hour and infected with NEV (1130 PFU per well) for 2 hours. After 2 hours fresh media with drugs was replaced. Cells were then incubated for 9 days in a humid chamber 37° C. and 5% CO2. After 9 days cellular viability of treated cells was compared to those of non infected cells and infected and not treated cells by using PrestoBlue cell viability reagent. […]

EHV-1 [3] = experiment: PrestoBlue cell viability of EHV-1 infected MacF macrophage-like cells; assay type: cell-based, Equine herpesvirus 1; conditions: Equus caballus, 144 h, day 6 post infection, average of two independent experiments
Protocol: (§2) Antiviral activity of Adefovir dipivoxil was also evaluated in macrophage like cell lines. […] (Selleckchem, Germany). The pre-treatment with the drug preceded the infection.
(§3) Infections studies, viral particle quantification and cell viability assays were performed as described above for antiviral assays in ED cells.
(§4) Antiviral activity of Tenofovir disoproxil fumarate was also evaluated in macrophage like cell lines. […] (Selleckchem, Germany). The pre-treatment with the drug preceded the infection.
(§5) EHV-1 cell infections, viral particle production and cell viability assays were assayed as described in example 5.

EHV-1 [4] = experiment: EHV-1 viral particles in supernatant of MacF macrophage-like cells by qPCR; assay type: cell-based, Equine herpesvirus 1; conditions: Equus caballus, 72 h, day 3 post infection
Protocol: as §2, §3, §4, §5

EHV-1 [5] = conditions: ED cells
Protocol: (§6) Equine Dermal cells (ATCC CCL57) (10^5 cells/cm^2) were seeded in 96 well plates 24 to 72 hours before infection in complete media and incubated in a humid chamber at 37° C. and 5% CO2 until 95%-99% confluent monolayers were attained. Complete media was composed of DMEM medium (Gibco, Thermofisher Scientific) with 10% of Inactivated Fetal bovine serum (Gibco, Thermofisher Scientific), 1% of Glutamax (Gibco, Life Technologies) and 1% Penicilin-Streptamicin (Gibco, Thermofisher Scientific). […] (Selleckchem, Germany). The pre-treatment with the drug preceded the infection.
(§7) ED cells were pre-treated with drug for 30 minutes before infection, and treatment maintained during infection.
(§8) Cells were infected with EHV-1 at 1 MOI for 2 hours. Infective EHV-1 viral particles were produced in ED cells with an EHV-1 molecular clone purchased from ATCC (VR-2248). After infection cells were washed twice with HBSS to remove unbound virus and fresh complete media and fresh drug was replaced in each well. Treatment was maintained during 6 days without addition of fresh drug.
(§9) After 6 days post-infection reazurin-based cell viability assays (PrestoBlue, Thermofisher Scientific) were used to evaluate the increased cell numbers in the same conditions as indicated above for qPCR quantification. […] 15 μl of Prestoblue reagent was added directly to the assay wells and absorbance measured at 570 nm after 24 hours of incubation with the Prestoblue reagent. All the absorbance values were corrected by removing the baseline, absorbance values of the Prestoblue reagent incubated 24 hours without cells. The results were analysed by Prism software by using the four-parameter function (log (drug) vs. response assuming a variable slope).
(§10) Equine Dermal cells (ATCC CCL57) (10^5 cells/cm^2) were seeded in 96 well plates 24 to 72 hours before infection in complete media and incubated in a humid chamber at 37° C. and 5% CO2 until 95%-99% confluent monolayers were attained. Complete media was composed of DMEM medium (Gibco, Thermofisher Scientific) with 10% of Inactivated Fetal bovine serum (Gibco, Thermofisher Scientific), 1% of Glutamax (Gibco, Thermofisher Scientific) and 1% Penicilin-Streptamicin (Gibco, Thermofisher Scientific). […] (Selleckchem, Germany). The pre-treatment with the drug preceded the infection.

in vitro = conditions: horse (equine)
Protocol: For that, ED cells (10^5 cells/cm^2) were seeded as mentioned above in 96-well plates. […] To determine drug CC50, twelve different concentrations of 4, 6, 9, 13.5, 20.250, 30.370, 45.560, 68.340, 102.520, 153.770, 230.660 and 2000 μM were performed in quintuplicates per each drug concentration. Cell viability was assessed by using the PrestoBlue reagent as mention above for IC50 analysis and incubated for 24 hours.
For that, ED cells (10^5 cells/cm^2) were seeded as mentioned above in 96-well plates. […] To determine drug CC50, ten different 1:1.3 serial dilutions from 25.39 to 350 μM were performed in quintuplicates per each drug concentration. Cell viability was assessed by using the PrestoBlue reagent as mention above for IC50 analysis and incubated for 24 hours.

EHV-1 [6] = experiment: EHV-1 viral particles in supernatant of ED cells by qPCR; assay type: cell-based, Equine herpesvirus 1; conditions: Equus caballus, 72 h, day 3 post infection
Protocol: (Selleckchem, Germany). The pre-treatment with the drug preceded the infection.
A standard curve of an EHV-1 synthetic DNA was used. To obtain the standard curve, seven 1:10 dilutions of the synthetic DNA in duplicates were tested in parallel. Samples were tested in triplicates. The standard curve obtained (with R2 0.995, Efficiency 91.7%) allowed us to quantify the EHV-1 viral particles produced into the cell culture media.

EHV-1 [7] = experiment: cells; conditions: Equus caballus, 144 h, read-out: IC50 for EHV-1 by cell viability
Protocol: as §6, §7, §8, §9, §10

NEV [8] = experiment: Dose response: PrestoBlue cell viability of NEV-infected equine macrophage cell line (MacF); assay type: cell-based, New Equine Virus
Protocol: An equine macrophage cell line (MacF) was spontaneously immortalized from a NEV-seropositive horse accordingly the procedures reported in Fidalgo-Carvalho et. al, 2009.
Cells were incubated 24 to 72 hours before NEV infection until 95%-99% confluent cell monolayers were attained.
(Selleckchem, Germany), as reported above for ED cells. To determine drug IC50 in MacF cell line, eleven serial dilutions of 1:4 ranging from 0.05 nM to 28 μM were performed in quintuplicates for each drug concentration. MacF Cells were pre-treated with drug for 60 minutes before infection, and treatment was maintained during infection. NEV viral particles (10 μl containing 1130 PFU) were added to the cell culture media for 2 hours. […] Eleven days after infection, cells were screened for viability by using the PrestoBlue cell viability assay (Molecular Probes, Life Technologies) accordingly to manufacturer instructions. Absorbance (570 nm) of adefovir dipivoxil treated cells was compared to those of non-infected and/or untreated NEV infected cells.

NEV [9] = experiment: Dose response: PrestoBlue cell viability of NEV-infected ED cells; assay type: cell-based, New Equine Virus
Protocol: as §1
(Selleckchem, Germany). The pre-treatment with adefovir dipivoxil (Selleckchem, Germany) preceded the infection. To determine drug IC50 ten 1:2 serial dilutions ranging from 5 to 2560 nM concentrations were performed in quintuplicates for each drug concentration. ED cells were pre-treated with drug for 60 minutes before infection, and treatment maintained during infection. NEV viral particles (10 μl containing 1130 PFU) were added to the cell culture media for 2 hours. […] Eleven days after infection, cells were screened for viability by using the PrestoBlue cell viability assay (Molecular Probes, Life Technologies) accordingly to manufacturer instructions. Absorbance (570 nm) of adefovir dipivoxil treated cells was compared to those of non-infected and/or untreated NEV-infected cells.

EIAVWYO [10] = experiment: IC50 for EIAVWYO viral replication in ED cells by RT qPCR; assay type: cell-based; conditions: Equine infectious anemia virus, 168 h, read-out: IC50 (EIAVWYO viral replication)
Protocol: Furthermore, to better evaluate the effect of the drug on EIAVWYO viral replication on ED cells, we have determined the IC50 of adefovir dipivoxil. […] (Selleckchem, Germany) for 60 minutes. The pre-treatment with Adefovir dipivoxil (Selleckchem, Germany) preceded the infection. Eleven serial dilutions ranging from 0.01 to 10,000 nM (0.01, 19.53, 39.06, 78.130, 156.250, 312.5, 625, 1250, 2500, 5000 and 10000 nM) were performed in triplicates for each drug concentration. Treatment was maintained during infection. EIAVWYO viral particles (10 μl containing 1.9×10^5 viral particles) were added in each well of a 96-well plate and incubated for 2 hours. […] For quantification, a standard curve of an EIAV plasmid DNA was used. To obtain the standard curve, seven 1:10 dilutions in duplicates were tested in parallel. Samples were tested in triplicates. The standard curve obtained (with R^2 0.994, Efficiency 96.56%) allowed us to quantify the viral particles.

[11] = Cytotoxicity (CC50) in MacF macrophage cell line, PrestoBlue; assay type: cell-based; conditions: horse (equine), MacF cells, treated for 7 days
From the text: (Selleckchem, Germany) for 7 days.

For `CC(C)CN(C[C@@H](O)[C@H](Cc1ccccc1)NC(=O)O[C@H]1CO[C@H]2OCC[C@H]21)S(=O)(=O)c1ccc(N)cc1` [Darunavir], the “EIAV viral replication decreased to (from 10^8)” value (EIAVWYO [1]) was 10^3 viral particles/mL.

For `C[C@H](Cn1cnc2c(N)ncnc21)OCP(=O)(O)O` [tenofovir, [(2R)-1-(6-aminopurin-9-yl)propan-2-yl]oxymethylphosphonic acid], the “cell viability of NEV infected cells” value (NEV [2]; drug at 10 μM) was “increased the cell viability of infected cells” and the “EIAV viral replication reduced to (from 10^8)” value (EIAVWYO [1]) was 10^5 viral particles/mL.

For `CC(C)(C)NC(=O)[C@@H]1CN(Cc2cccnc2)CCN1C[C@@H](O)C[C@@H](Cc1ccccc1)C(=O)N[C@H]1c2ccccc2C[C@H]1O` [Indinavir], the “EIAV viral replication decreased to (from 10^8)” value (EIAVWYO [1]) was 10^4 viral particles/mL.

In the case of `CC(C)OC(=O)OCOP(=O)(CO[C@H](C)Cn1cnc2c(N)ncnc21)OCOC(=O)OC(C)C.O=C(O)/C=C/C(=O)O` [tenofovir disoproxil fumarate], the IC50 (EHV-1 [3]) is reported as 22.7 µM, the IC50 (EHV-1 [4]; average of two independent experiments) is reported as 1.13 µM and the “therapeutic index (CC50/IC50) for EHV-1” value (EHV-1 [5]) is reported as 8.334. The CC50 at 3 days (in vitro) was 117 µM, the IC50 (EHV-1 [6]; average of four independent experiments) was 7.44 µM and the IC50 (EHV-1 [7]) was 14 µM.

In the case of `Cc1cn([C@H]2C[C@H](N=[N+]=[N-])[C@@H](CO)O2)c(=O)[nH]c1=O` [zidovudine], the “EIAV viral replication reduced to (from 10^8)” value (EIAVWYO [1]) is reported as 10^5 viral particles/mL.

For `CC(C)(C)C(=O)OCOP(=O)(COCCn1cnc2c(N)ncnc21)OCOC(=O)C(C)(C)C` [adefovir dipivoxil, 9-[2-[[bis[(pivaloyloxy)methoxy]phosphinyl]-methoxy]ethyl]adenine], the “cellular viability of NEV infected cells” value (NEV [2]; drug at 1 or 10 μM, vs non infected and untreated infected cells) was “completely reverted the effect of NEV on cellular viability”, the “cell viability (absorbance) compared with Mock MacF cells” value (NEV [8]; 14 μM, 11 days post NEV infection) was “very similar (or even slightly higher)” and the IC50 (NEV [8]; Equus caballus, Macrophage, 264 h, MacF cells, 11 days after infection) was 3.83 µM. For the same compound, the “cell viability (absorbance) compared with non-infected mock cells” value (NEV [9]; 320 nM, 11 days post NEV infection) was “very similar absorbance values”, the IC50 (NEV [9]; Equus caballus, 264 h, 11 days after infection) was 0.113 µM and the “effect on EIAV replication” value (EIAVWYO [1]; ED cells, 1 or 10 μM, single dose, up to 20 days) was “blocked the EIAV replication”. For the same compound, the “virus recovered from treated cells” value (EIAVWYO [1]; day 5, one of three replicates) was 10 viral particles/mL, the “virus recovered from treated cells” value (EIAVWYO [1]; day 15, one of three replicates) was 100 viral particles/mL and the IC50 (EHV-1 [3]) was 0.172 µM. The IC50 (EIAVWYO [10]) was 0.00338 µM, the IC50 (EHV-1 [4]; average of three independent experiments) was 0.142 µM and the “therapeutic index (CC50/IC50) for EHV-1” value (EHV-1 [5]) was 1162.3. It also gave a CC50 at 6 days (in vitro; Equine Dermal (ED) cells (ATCC CCL57)) of 142 µM, a CC50 at 7 days [11] of 207 µM and an IC50 (EHV-1 [6]; three independent experiments) of 0.00442 µM. For the same compound, the IC50 (EHV-1 [7]) was 0.123 µM.
